Results as given in PMC10734772 (Turkish Journal of Chemistry, 2021).

How the values were obtained:
Type in all cases: cell-based
Nalm-6 = experiment: MTT assay, Nalm-6 cells; conditions: Homo sapiens, 24 h
Experimental: K562, Jurkat and Molt-4 cell lines were seeded as 4x10^5/ml, Reh and Nalm-6 cell lines were seeded 5x10^5/ml, Hek293T cell line was seed as 2x10^5/ml.
MTT assay is a 3-day test. On the first day, cell count was performed in Bio Rad TC-20 device with the help of trypan blue, each cell line was prepared by diluting to the specified concentrations and seeded in a 96-well plate as 100μL to each well and incubated for 1 day.
On the second day, stock solutions were subsequently diluted to various concentrations (0.3–200 μM) with related medium prior to experiments. Specified concentrations of the compounds were seeded in a 96-well plate as 100μL to each well and incubated for 24 h.
After incubation (on the third day), to precipitate leukemia cells, the cell plate was centrifuged at 1500 rpm for 5 min. […] The 50 μl of supernatant was discarded from each well and 100 μl of DMSO was added to dissolve the formazan. Plates were shaken for 45 min to dissolve the dye. Then the optical density of each well was measured by using Thermo VarioSkan Flush Multimode Reader Quantum ST5-1100 at 570 nm wavelength.
Subsequently, viability rate of the cells at each concentration, as percentage, was determined by following formula (1):
Viability rate (%)=100-[(OD(control)-OD(sample))/OD(control)×100].OD=Optical Density
The IC50 values were calculated by using GraphPad Prism. All the data presented as the mean of 6 replicates. […] Statistical analysis was performed using dose-response inhibition, log(inhibitor) vs response-variable slope, least squares (ordinary) fit.

K562 = experiment: MTT assay, K562 cells; conditions: Homo sapiens, 24 h, MTT, read-out: Viability rate
[1] = MTT assay, Hek293T non-leukemic control cells; conditions: human, read-out: Viability rate
Jurkat = experiment: MTT assay, Jurkat cells; conditions: Homo sapiens, 24 h, read-out: Viability rate
[2] = test system: K562, Nalm-6, Molt-4, Reh, Jurkat, Hek293T cell lines; experiment: MTT assay, overall judgement over all cell lines; conditions: overall judgement in words; for 6 and 10: on all cell lines, except Reh
Experimental: To evaluate in-vitro anti-cancer activity of the newly synthesized compounds, they were tested by using the MTT assay in the BCR-ABL positive leukemic cell line (K562), BCR-ABL negative leukemic cell lines (Nalm-6, Molt-4, Reh and Jurkat), and non-leukemic human embryonic kidney tissue (Hek293T) cell line. […] The viability rate of each concentration was calculated by the formula stated in material and methods, the viability rate results for each cell were presented in Table S2 and Figure S44.

Reh = experiment: MTT assay, Reh cells; conditions: Homo sapiens, 24 h, read-out: Viability rate
Molt-4 = experiment: MTT assay, Molt-4 cells; conditions: Homo sapiens, MOLT-4, 24 h, read-out: Viability rate

Which viability at 0.3 µM (Nalm-6; Nalm-6, 0.3 μM, MTT, read-out: Viability rate) does the source give for COc1ccc(CN2CCN(Cc3ccc(C(=O)Nc4ccc(C)c(Nc5nccc(C)n5)c4)cc3)CC2)c(OC)c1OC [Compound 6] here?
The viability at 0.3 µM was 100.7 ± 0.01%.

And the viability at 0.5 µM (Nalm-6; Nalm-6, 0.5 μM, MTT, read-out: Viability rate)?
The viability at 0.5 µM was 100.5 ± 0.02%.

What about the viability at 1 µM (Nalm-6; Nalm-6, 1 μM, MTT, read-out: Viability rate) of the same compound?
Its viability at 1 µM is 100.1 ± 0.03%.

And the viability at 3 µM (Nalm-6; Nalm-6, 3 μM, MTT, read-out: Viability rate)?
The viability at 3 µM was 100 ± 0.04%.

What about the viability at 5 µM (Nalm-6; Nalm-6, 5 μM, MTT, read-out: Viability rate) of the same compound?
The viability at 5 µM was 98.8 ± 0.04%.

What about the viability at 10 µM (Nalm-6; Nalm-6, 10 μM, MTT, read-out: Viability rate) of the same compound?
The viability at 10 µM was 98 ± 0.02%.

And the viability at 15 µM (Nalm-6; Nalm-6, 15 μM, MTT, read-out: Viability rate)?
Its viability at 15 µM is 95.6 ± 0.02%.

What about the viability at 20 µM (Nalm-6; Nalm-6, 20 μM, MTT, read-out: Viability rate) of the same compound?
The viability at 20 µM was 82.6 ± 0.02%.

And the viability at 30 µM (Nalm-6; Nalm-6, 30 μM, MTT, read-out: Viability rate)?
Its viability at 30 µM is 71.6 ± 0.01%.

What about the viability at 50 µM (Nalm-6; Nalm-6, 50 μM, MTT, read-out: Viability rate) of the same compound?
The viability at 50 µM was 55.2 ± 0.01%.

And the viability at 70 µM (Nalm-6; Nalm-6, 70 μM, MTT, read-out: Viability rate)?
Its viability at 70 µM is 43.5 ± 0.01%.

What about the viability at 100 µM (Nalm-6; Nalm-6, 100 μM, MTT, read-out: Viability rate) of the same compound?
Its viability at 100 µM is 42.6 ± 0.01%.

What about the viability at 150 µM (Nalm-6; Nalm-6, 150 μM, MTT, read-out: Viability rate) of the same compound?
Its viability at 150 µM is 42.9 ± 0.01%.

What about the viability at 200 µM (Nalm-6; Nalm-6, 200 μM, MTT, read-out: Viability rate) of the same compound?
Its viability at 200 µM is 42.8%.

And the IC50 (Nalm-6; Nalm-6, MTT, range 0.3–200 μM, six replicates)?
The IC50 was 48 µM.

What about the viability at 0.3 µM (K562; K562, 0.3 μM) of the same compound?
The viability at 0.3 µM was 92.5 ± 0.11%.

What about the viability at 0.5 µM (K562; K562, 0.5 μM) of the same compound?
The viability at 0.5 µM was 91.8 ± 0.06%.

And the viability at 1 µM (K562; K562, 1 μM)?
Its viability at 1 µM is 91.8 ± 0.04%.

And the viability at 3 µM (K562; K562, 3 μM)?
The viability at 3 µM was 88.7 ± 0.05%.

And the viability at 5 µM (K562; K562, 5 μM)?
The viability at 5 µM was 87.6 ± 0.05%.

And the viability at 10 µM (K562; K562, 10 μM)?
The viability at 10 µM was 87.3 ± 0.11%.

And the viability at 15 µM (K562; K562, 15 μM)?
Its viability at 15 µM is 87.3 ± 0.1%.

And the viability at 20 µM (K562; K562, 20 μM)?
Its viability at 20 µM is 86.5 ± 0.07%.

And the viability at 30 µM (K562; K562, 30 μM)?
The viability at 30 µM was 85.5 ± 0.1%.

What about the viability at 50 µM (K562; K562, 50 μM) of the same compound?
The viability at 50 µM was 78.1 ± 0.1%.

What about the viability at 70 µM (K562; K562, 70 μM) of the same compound?
The viability at 70 µM was 68.5 ± 0.05%.

What about the viability at 100 µM (K562; K562, 100 μM) of the same compound?
Its viability at 100 µM is 67.5 ± 0.03%.

What about the viability at 150 µM (K562; K562, 150 μM) of the same compound?
Its viability at 150 µM is 67.3 ± 0.02%.

And the viability at 200 µM (K562; K562, 200 μM)?
Its viability at 200 µM is 67.2 ± 0.03%.

What about the viability at 24 h, 0.3 µM ([1]; Hek293T cells (non-leukemic control cell line), 0.3 μM) of the same compound?
Its viability at 24 h, 0.3 µM is 91.1 ± 0.15%.

What about the viability at 24 h, 0.5 µM ([1]; Hek293T cells (non-leukemic control cell line), 0.5 μM) of the same compound?
Its viability at 24 h, 0.5 µM is 90.8 ± 0.14%.

What about the viability at 24 h, 3 µM ([1]; Hek293T cells (non-leukemic control cell line), 3 μM) of the same compound?
Its viability at 24 h, 3 µM is 81.4 ± 0.09%.

And the viability at 24 h, 5 µM ([1]; Hek293T cells (non-leukemic control cell line), 5 μM)?
The viability at 24 h, 5 µM was 78.5 ± 0.14%.

What about the viability at 24 h, 10 µM ([1]; Hek293T cells (non-leukemic control cell line), 10 μM) of the same compound?
The viability at 24 h, 10 µM was 78.2 ± 0.02%.

What about the viability at 24 h, 15 µM ([1]; Hek293T cells (non-leukemic control cell line), 15 μM) of the same compound?
Its viability at 24 h, 15 µM is 70.6 ± 0.04%.

And the viability at 24 h, 20 µM ([1]; Hek293T cells (non-leukemic control cell line), 20 μM)?
The viability at 24 h, 20 µM was 65.5 ± 0.1%.

And the viability at 24 h, 30 µM ([1]; Hek293T cells (non-leukemic control cell line), 30 μM)?
Its viability at 24 h, 30 µM is 57.4 ± 0.09%.

What about the viability at 24 h, 50 µM ([1]; Hek293T cells (non-leukemic control cell line), 50 μM) of the same compound?
The viability at 24 h, 50 µM was 50.7 ± 0.05%.

What about the viability at 24 h, 70 µM ([1]; Hek293T cells (non-leukemic control cell line), 70 μM) of the same compound?
Its viability at 24 h, 70 µM is 48.8 ± 0.02%.

And the viability at 24 h, 100 µM ([1]; Hek293T cells (non-leukemic control cell line), 100 μM)?
The viability at 24 h, 100 µM was 47.9 ± 0.01%.

And the viability at 24 h, 150 µM ([1]; Hek293T cells (non-leukemic control cell line), 150 μM)?
Its viability at 24 h, 150 µM is 47.7 ± 0.02%.

And the viability at 24 h, 200 µM ([1]; Hek293T cells (non-leukemic control cell line), 200 μM)?
Its viability at 24 h, 200 µM is 47 ± 0.02%.

What about the viability at 24 h, 1 µM ([1]; Hek293T cells, 1 μM) of the same compound?
Its viability at 24 h, 1 µM is 87 ± 0.15%.

And the viability at 3 µM (Jurkat; 3 μM)?
Its viability at 3 µM is 79.1 ± 0.02%.

And the viability at 5 µM (Jurkat; 5 μM)?
Its viability at 5 µM is 69.8 ± 0.02%.

What about the viability at 10 µM (Jurkat; 10 μM) of the same compound?
Its viability at 10 µM is 69.7 ± 0.05%.

And the viability at 15 µM (Jurkat; 15 μM)?
The viability at 15 µM was 69.2 ± 0.02%.

And the viability at 20 µM (Jurkat; 20 μM)?
Its viability at 20 µM is 68.9 ± 0.01%.

And the viability at 30 µM (Jurkat; 30 μM)?
The viability at 30 µM was 68.8 ± 0.03%.

And the viability at 50 µM (Jurkat; 50 μM)?
The viability at 50 µM was 59.1 ± 0.03%.

What about the viability at 70 µM (Jurkat; 70 μM) of the same compound?
The viability at 70 µM was 47.8 ± 0.01%.

And the viability at 100 µM (Jurkat; 100 μM)?
The viability at 100 µM was 44 ± 0.01%.

What about the viability at 150 µM (Jurkat; 150 μM) of the same compound?
The viability at 150 µM was 36.4 ± 0.01%.

And the viability at 200 µM (Jurkat; 200 μM)?
Its viability at 200 µM is 35.3 ± 0.01%.

And the “anticancer activity according to MTT assay results” value [2]?
The value was “high anticancer activity”.

And the viability at 0.3 µM (Reh; 0.3 μM)?
Its viability at 0.3 µM is 109.5 ± 0.02%.

What about the viability at 0.5 µM (Reh; 0.5 μM) of the same compound?
Its viability at 0.5 µM is 105.2 ± 0.02%.

And the viability at 1 µM (Reh; 1 μM)?
The viability at 1 µM was 106.8 ± 0.01%.

And the viability at 3 µM (Reh; 3 μM)?
The viability at 3 µM was 107.9 ± 0.02%.

And the viability at 5 µM (Reh; 5 μM)?
The viability at 5 µM was 108.2 ± 0.01%.

And the viability at 10 µM (Reh; 10 μM)?
Its viability at 10 µM is 106.9 ± 0.02%.

What about the viability at 15 µM (Reh; 15 μM) of the same compound?
Its viability at 15 µM is 106.5 ± 0.02%.

What about the viability at 20 µM (Reh; 20 μM) of the same compound?
The viability at 20 µM was 97.7 ± 0.02%.

What about the viability at 30 µM (Reh; 30 μM) of the same compound?
Its viability at 30 µM is 88.6 ± 0.03%.

What about the viability at 50 µM (Reh; 50 μM) of the same compound?
The viability at 50 µM was 85.6 ± 0.02%.

And the viability at 70 µM (Reh; 70 μM)?
Its viability at 70 µM is 65.3 ± 0.02%.

What about the viability at 100 µM (Reh; 100 μM) of the same compound?
Its viability at 100 µM is 62.2 ± 0.01%.

And the viability at 150 µM (Reh; 150 μM)?
Its viability at 150 µM is 61.3 ± 0.01%.

What about the viability at 200 µM (Reh; 200 μM) of the same compound?
The viability at 200 µM was 61.1 ± 0.02%.

And the viability at 0.3 µM (Molt-4; Molt-4, 0.3 μM)?
Its viability at 0.3 µM is 84.4 ± 0.14%.

What about the viability at 0.5 µM (Molt-4; Molt-4, 0.5 μM) of the same compound?
Its viability at 0.5 µM is 79.7 ± 0.1%.

What about the viability at 1 µM (Molt-4; Molt-4, 1 μM) of the same compound?
Its viability at 1 µM is 78.7 ± 0.09%.

What about the viability at 3 µM (Molt-4; Molt-4, 3 μM) of the same compound?
Its viability at 3 µM is 79.7 ± 0.18%.

What about the viability at 5 µM (Molt-4; Molt-4, 5 μM) of the same compound?
The viability at 5 µM was 80.5 ± 0.16%.

And the viability at 10 µM (Molt-4; Molt-4, 10 μM)?
Its viability at 10 µM is 81.8 ± 0.07%.

What about the viability at 15 µM (Molt-4; Molt-4, 15 μM) of the same compound?
Its viability at 15 µM is 79.2 ± 0.15%.

What about the viability at 20 µM (Molt-4; Molt-4, 20 μM) of the same compound?
Its viability at 20 µM is 76 ± 0.05%.

What about the viability at 30 µM (Molt-4; Molt-4, 30 μM) of the same compound?
The viability at 30 µM was 75.4 ± 0.08%.

What about the viability at 50 µM (Molt-4; Molt-4, 50 μM) of the same compound?
The viability at 50 µM was 73.5 ± 0.04%.

And the viability at 70 µM (Molt-4; Molt-4, 70 μM)?
The viability at 70 µM was 68.9 ± 0.06%.

And the viability at 100 µM (Molt-4; Molt-4, 100 μM)?
Its viability at 100 µM is 61.7 ± 0.02%.

What about the viability at 150 µM (Molt-4; Molt-4, 150 μM) of the same compound?
Its viability at 150 µM is 59.9 ± 0.05%.

What about the viability at 200 µM (Molt-4; Molt-4, 200 μM) of the same compound?
The viability at 200 µM was 55.2 ± 0.04%.
